Legend:
[1] = system: Vasopressin V1; assay: Vasopressin V1 Antagonist Activity in Conscious Rats (vasopressin vasopressor response); type: in vivo, rat
Procedure: Vasopressin V1 Antagonist Activity in Conscious Rats Conscious rats are restrained in a supine position with elastic tape. The area at the base of the tail is locally anesthetization by subcutaneous infiltration with 2% procaine (0.2 ml). Using aseptic technique the ventral caudal tail artery is isolated and a cannula made of PE 10 and 20 (heat-fused) tubing is passed into the lower abdominal aorta. The cannula is secured, heparinized (1000 i.u./cc), sealed and the would closed with one or two stitches of Dexon 4-0. The caudal vein is also cannulated in the same manner for intravenous drug administration. The duration of the surgery is approximately 5 minutes. Additional local anesthesia (2% procaine or lidocaine) is provided as needed. The animals are placed in plastic restraining cages in an upright position. The cannula is attached to a […] pressure transducer and pulsatile blood pressure is recorded. […] Percentage of antagonism by the compound is calculated using the pre-drug vasopressin vasopressor response as 100%.

[2] = molecular target: T1, Rat Hepatic V1 Receptors (vasopressin V1) (Rattus norvegicus, UniProt P30560); assay: Binding Assay to Rat Hepatic V1 Receptors; conditions: rat hepatic V1, [3H]vasopressin
T1 construct: Rat liver plasma membranes expressing the vasopressin V1 receptor subtypes are isolated by sucrose density gradient; from tissue; host or cells: rat liver plasma membranes
Procedure: Binding Assay to Rat Hepatic V1 Receptors
Rat liver plasma membranes expressing the vasopressin V1 receptor subtypes are isolated by sucrose density gradient according to the method described by Lesko et al., (1973). These membranes are quickly suspended in 50.0 mMTris.HCl buffer, pH 7.4, containing 0.2% bovine serum albumin (BSA) and 0.1 mM phenylmethylsulfonylfluoride (PMSF) and kept frozen at -70° C. until used in subsequent binding experiments. For binding experiments, the following is added to the wells of a ninety-six well format microtiter plate: 100 μl of 100.0 mM Tris.HCl buffer containing 10.0 mM MgCl2, 0.2% heat inactivated BSA and a mixture of protease inhibitors: leupeptin, 1.0 mg %; aprotinin, 1.0 mg %, 1,10-phenanthroline,2.0 mg %; trypsin inhibitor, 10.0 mg % and 0.1 mM PMSF, 20.0 μl of [phenylalanyl-3,4,5-^3 H]vasopressin (S.A. 45.1 Ci/mmole) at 0.8 nM, and the reaction initiated by the addition of 80 μl of tissue membranes containing 20 μg of tissue protein. The plates are kept undisturbed on the bench top at room temperature for 120 min. to reach equilibrium. Nonspecific samples are assayed in the presence of 0.1 μM of the unlabeled antagonist phenylalanylvasopressin, added in 20.0 μl volume to a final incubation volume of 200 μl. Upon completion of binding, the content of each well is filtered off, using a Brandel® cell Harvester (Gaithersburg, Md.). The radioactivity trapped on the filter disk by the ligand-receptor complex is assessed by liquid scintillation counting in a Packard LS Counter, with an efficiency of 65% for tritium. The data are analyzed for IC50 values by the LUNDON-2 program for competition (LUNDON SOFTWARE, OH).

[3] = molecular target: T2, Rat Kidney Medullary V2 Receptors (vasopressin V2) (Rattus norvegicus, UniProt Q00788); assay: Binding Assay to Rat Kidney Medullary V2 Receptors; conditions: rat kidney medullary V2, [3H]Arg8-vasopressin
T2 construct: Medullary tissues from rat kidneys are dissected out; from tissue; host or cells: rat kidney medulla membranes
Procedure: Binding Assay to Rat Kidney Medullary V2 Receptors
Medullary tissues from rat kidneys are dissected out, cut into small pieces and let soak in a […] sodium chloride solution containing 1.0 mM EDTA with many changes of the liquid phase, until the solution is clear of blood. The tissue is homogenized in a 0.25M sucrose solution containing 1.0 mM EDTA and 0.1 mM PMSF using a Potter-Elvehjem homogenizer with a teflon pestle. The homogenate is filtered through several layers (4 layers) of cheese cloth. The filtrate is rehomogenized using a dounce homogenizer, with a tight fitting pestle. The final homogenate is contrifuged at 1500×g for 15 min. The nuclear pellet is discarded and the supernatant fluid recentrifuged at 40,000×g for 30 min. The resulting pellet formed contains a dark inner part with the exterior, slightly pink. The pink outer part is suspended in a small amount of 50.0 mMTris.HCl buffer, pH 7.4. The protein content is determined by the Lowry's method (Lowry et al, J. Biol. Chem., 1953). The membrane suspension is stored at -70° C., in 50.0 mMTris.HCl, containing 0.2% inactivated BSA and 0.1 mM PMSF in aliquots of 1.0 ml containing 10.0 mg protein per ml of suspension until use in subsequent binding experiments.
For binding experiments, the following is added in μl volume to wells of a 96 well format of a microtiter plate: 100.0 μl of 100.0 mM Tris.HCl buffer containing 0.2% heat inactivated BSA, 10.0 mM MgCl2 and a mixture of protease inhibitors: leupeptin, 1.0 mg %; aprotinin, 1.0 mg %; 1,10-phenanthroline, 2.0 mg %; trypsin inhibitor, 10.0 mg % and 0.1 mM PMSF, 20.0 μl of [^3 H]Arginine^8, vasopressin (S.A. 75.0 Ci/mmole) at 0.8 nM and the reaction initiated by the addition of 80.0 μl of tissue membranes (200.0 μg tissue protein). The plates are left undisturbed on the bench top for 120 min. to reach equilibrium. Non-specific binding is assessed in the presence of 1.0 μM of unlabeled ligand, added in 20 μl volume. For test compounds, these are solubilized in 50% dimethylsulfoxide (DMSO) and added in 20.0 μl volume to a final incubation volume of 200 μl. Upon completion of binding, the content of each well is filtered off, using a Brandel® cell Harvester (Gaithersburg, Md.). The radioactivity trapped on the filter disk by the ligand-receptor complex is assessed by liquid scintillation counting in a Packard LS Counter, with an efficiency of 65% for tritium. The data are analyzed for IC50 values by the LUNDON-2 program for competition (LUNDON SOFTWARE, OH).

[4] = system: Vasopressin V2; assay: Vasopressin V2 Antagonist Activity in Conscious Hydrated Rats; type: in vivo, rat; conditions: AVP 0.4 μg/kg i.p.
Procedure: Vasopressin V2 Antagonist Activity in conscious Hydrated Rats Conscious hydrated rats are treated with compounds under study from 0.1 to 100 mg/kg orally or vehicle. Two to four rats are used for each compound. One hour later, arginine vasopressin (AVP, antidiuretic hormone, ADH) dissolved in peanut oil is administered at 0.4 μg/kg intraperitoneally. Two rats in each test would not receive arginine vasopressin but only the vehicle (peanut oil) to serve as water-loading control. Twenty minutes later each rat is given 30 mL/kg of deionized water orally by gavage and is placed individually in a metabolic cage equipped with a funnel and a graduated glass cylinder to collect urine for four hours. Urine volume is measured and osmolality analyzed by use of a Fiske One-Ten osmometer (Fiske Assoc., Norwood, Mass. USA). Urinary sodium, potassium, and chloride are analyzed by use of ion-specific electrodes in a Beckman E3 (Electrolyte 3) Analyzer. In the following results, […] and […] osmolality relative to AVP-control indicates activity.

[5] = molecular target: T3, oxytocin receptors (Rattus norvegicus, UniProt P70536); assay: Oxytocin Receptor Binding; design: species or system Sprague-Dawley rats; conditions: for IC50: 1.0 nM [3H]oxytocin
T3 construct: The uteri are dissected out, cleaned of fat and connective tissues; from tissue; host or cells: uterus membranes of DES-treated female Sprague-Dawley rats
T3 sequence (P70536 1-388): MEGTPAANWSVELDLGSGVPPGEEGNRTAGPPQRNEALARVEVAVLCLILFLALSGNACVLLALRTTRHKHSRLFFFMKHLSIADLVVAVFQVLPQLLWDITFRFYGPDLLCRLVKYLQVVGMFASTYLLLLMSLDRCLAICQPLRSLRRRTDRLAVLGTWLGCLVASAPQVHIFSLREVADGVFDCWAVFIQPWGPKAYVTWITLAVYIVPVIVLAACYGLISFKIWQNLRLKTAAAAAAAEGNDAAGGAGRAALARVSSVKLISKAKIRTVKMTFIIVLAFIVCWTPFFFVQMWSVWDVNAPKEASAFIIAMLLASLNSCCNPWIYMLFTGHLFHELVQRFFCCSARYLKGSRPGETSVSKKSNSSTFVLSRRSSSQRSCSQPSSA
Procedure: Oxytocin Receptor Binding
Female Sprague-Dawley rats weighing approximately 200-250 g are injected intramuscularly (i.m.) with 0.3 mg/kg of body weight of diethylstilbestrol (DES). The rats are sacrificed 18 hours later under pentobarbital anesthesia. The uteri are dissected out, cleaned of fat and connective tissues and rinsed in 50 ml of normal saline. The tissue pooled from six rats is homogenized in 50 ml of 0.01 mMTris.HCl, containing 0.5 mM dithiothreitol and 1.0 mM EDTA, adjusted to pH 7.4, using a polytron at setting 6 with three passes of 10 sec each. The homogenate is passed through two (2) layers of cheesecloth and the filtrate centrifuged at 1000×g for 10 min. The clear supernatant is removed and recentrifuged at 165,000×g for 30 min. The resulting pellet containing the oxytocin receptors is resuspended in 50.0 mM Tris.HCl containing 5.0 mM MgCl2 at pH 7.4, to give a protein concentration of 2.5 mg/ml of tissue suspension. This preparation is used in subsequent binding assays with [^3 H]Oxytocin.
Binding of 3,5-[^3 H]Oxytocin ([^3 H]OT) to its receptors is done in microtiter plates using [^3 H]OT, at various concentrations, in an assay buffer of 50.0 mM Tris.HCl, pH 7.4 and containing 5.0 mM MgCl2, and a mixture of protease inhibitors: BSA, 0.1 mg; aprotinin, 1.0 mg; 1,10-phenanthroline, 2.0 mg; […], 10.0 mg; and PMSF, 0.3 mg per 100 ml of buffer solution. Nonspecific binding is determined in the presence of 1.0 uM unlabeled OT. The binding reaction is terminated after 60 min., at 22° C., by rapid filtration through glass fiber filters using a Brandel® cell harvester (Biomedical Research and Development Laboratories, Inc., Gaithersburg, Md.). Competition experiments are conducted at equilibrium using 1.0 nM [^3 H]OT and varying the concentration of the displacing agents. The concentrations of agent displacing 50% of [^3 H]OT at its sites (IC50) are calculated by a computer assisted LUNDON-2 program (LUNDON SOFTWARE INC., Ohio, USA).

[6] = Rattus norvegicus, 10 mg/kg iv, read-out: Vasopressin vasopressor response, Max. % Inhibition

T1 sequence (P30560 whole entry): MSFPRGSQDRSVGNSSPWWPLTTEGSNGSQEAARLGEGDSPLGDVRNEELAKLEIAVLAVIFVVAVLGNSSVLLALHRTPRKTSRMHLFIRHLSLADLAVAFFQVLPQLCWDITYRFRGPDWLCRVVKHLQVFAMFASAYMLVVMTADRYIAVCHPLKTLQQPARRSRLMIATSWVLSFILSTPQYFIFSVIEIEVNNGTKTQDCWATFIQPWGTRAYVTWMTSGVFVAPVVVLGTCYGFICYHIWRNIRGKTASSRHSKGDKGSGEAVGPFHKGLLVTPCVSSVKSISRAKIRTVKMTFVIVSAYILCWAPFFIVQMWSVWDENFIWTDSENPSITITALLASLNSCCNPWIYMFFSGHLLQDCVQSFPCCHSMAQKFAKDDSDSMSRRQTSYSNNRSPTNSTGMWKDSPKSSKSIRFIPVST
T2 sequence (Q00788 whole entry): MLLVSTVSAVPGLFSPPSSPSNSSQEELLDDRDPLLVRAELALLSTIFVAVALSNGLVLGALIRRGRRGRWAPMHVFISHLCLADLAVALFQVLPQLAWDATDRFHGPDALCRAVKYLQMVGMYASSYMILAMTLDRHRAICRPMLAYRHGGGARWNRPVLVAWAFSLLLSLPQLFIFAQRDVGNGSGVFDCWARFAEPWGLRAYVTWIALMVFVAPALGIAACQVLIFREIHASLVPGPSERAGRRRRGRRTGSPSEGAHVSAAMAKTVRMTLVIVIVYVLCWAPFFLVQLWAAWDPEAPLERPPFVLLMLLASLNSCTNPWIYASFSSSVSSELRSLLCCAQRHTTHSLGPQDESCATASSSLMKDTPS

Row | Compound | Time (Min) of Max. % Inhibition ([1]; 10 mg/kg iv) [min] | inhibition in vivo at 10 mg/kg [1, 6] [%] | IC50 [2] [µM] | IC50 [3] [µM] | Urine Volume ([4]; 10 mg/kg P.O.) [ml/4 hours] | Time (Min) of Max. % Inhibition ([1]; 20 mg/kg iv) [min] | inhibition in vivo at 20 mg/kg ([1]; Rattus norvegicus, 20 mg/kg iv, read-out: Vasopressin vasopressor response, Max. % Inhibition) [%] | Osmolality ([4]; 30 mg/kg P.O.) [mOsm/kg] | Urine Volume ([4]; 30 mg/kg P.O.) [ml/4 hours] | IC50 [5] [µM] | inhibition at 10 µM ([5]; 10 μM) [%] | inhibition at 2.5 µM ([5]; 2.5 μM) [%]
1 | O=C(Cc1ccccc1Cl)Nc1ccc(C(=O)N2CCCCc3sccc32)cc1 [Example 2, N-[4-[(5,6,7,8-Tetrahydro-4H-thieno[3,2-b]azepin-4-yl)carbonyl]phenyl]-2-chlorobenzeneacetamide] | 60 | 7.6 | 0.0037 | 0.0026 | 2.8 | – | – | – | – | – | – | –
2 | O=C(Nc1ccc(C(=O)N2CCCCc3sccc32)cc1)c1ccc(Cl)cc1Cl [Example 14, N-[4-[(5,6,7,8-Tetrahydro-4H-thieno[3,2-b]azepin-4-yl)carbonyl]phenyl]2,4-dichlorobenzamide] | – | – | 0.12 | 0.03 | – | 120 | 61 | 1432 | 3.5 | – | – | –
3 | O=C(Nc1ccc(C(=O)N2CCCCc3sccc32)cc1)C1CC=CCC1 (stereo not shown) [Example 15, N-[4-[(5,6,7,8-Tetrahydro-4H-thieno[3,2-b]azepin-4-yl)carbonyl]phenyl]3-cyclohexenecarboxamide] | 30 | 69 | 0.065 | 0.055 | – | – | – | 1397 | 4.6 | – | – | –
4 | O=C(Cc1ccccc1Cl)Nc1ccc(C(=O)N2CCCCc3sc(Cl)cc32)cc1 [Example 99, N-[4-[(2-Chloro-5,6,7,8-tetrahydro-4H-thieno[3,2-b]azepin-4-yl)carbonyl]phenyl]-2-chlorobenzeneacetamide] | 90 | 58 | 0.02 | 0.0033 | – | – | – | 1135 | 10 | – | – | –
5 | Cc1ccc(F)cc1C(=O)Nc1ccc(C(=O)N2CCCCc3sccc32)cn1 [Example 243, N-[5-[(5,6,7,8-tetrahydro-4H-thieno[3,2-b]azepin-4-yl)carbonyl]-2-pyridinyl]-5-fluoro-2-methylbenzamide] | – | – | 0.068 | 0.0061 | – | – | – | – | – | 0.34 | 96 | –
6 | O=C(Nc1ccc(C(=O)N2CCCCc3sccc32)cn1)c1ccccc1-c1ccccc1 [Example 252] | – | – | 0.068 | 0.0061 | – | – | – | – | – | 0.17 | – | 93

From patent US5696112A, “Fused heterocyclic azepines as vasopressin antagonists” (American Cyanamid Company, priority 1995, dated 1997)
